Measurements from US12344600B2, “c-Myc mRNA translation modulators and uses thereof in the treatment of cancer” (Anima Biotech Inc., priority 2022, dated 2025).

These molecules were tested on c-Myc (assay: c-Myc immunofluorescence assay). Settings: A549 cells, 24 hours, anti-c-Myc immunofluorescence.
Format: cell-based, human
Protocol: A549 human non-small cell lung carcinoma cells were treated for 24 hours with increasing compound concentration, cells were fixed and stained with a nuclei stain (DAPI) and anti-c-Myc fluorescent antibody. The c-Myc signal was quantified by image analysis, and data was exported and analyzed using TIBCO Spotfire® (TIBCO Corporation). Dose response curves were generated and fitted with logaristic regression to calculate potency (EC50 values). Potency values are presented in Table 2 for all compounds and are shown for selected compounds (FIG. 3).
A549 cells were grown in 384-wells plates (Perkin Elmer, Cat. 6057300) for 48 hours, treated with compounds and then fixed for 20 min in 4% paraformaldehyde. After that permeabilization was done using 0.1% Triton X-100 in PBS for 20 min. Primary anti-c-Myc antibody (Abcam, ab32072) staining was performed for 90 min at room temperature. Cells then were washed twice with PBS and incubated with secondary antibody (Abcam, ab150075) for 90 min at room temperature. Nuclei were stained with DAPI for 10 min and washed twice with PBS.
Cell images were taken with Operetta (Perkin Elmer, USA), a wide-field fluorescence microscope at 20× magnification. After acquisition, the images were transferred to Columbus software (Perkin-Elmer) for image analysis. In Columbus, cells were identified by their nucleus, using the “Find Nuceli” module and cytoplasm was detected based on the secondary antibody channel. Subsequently, the fluorescent signal was enumerated in the identified cell region. Then data was exported to a data analysis and visualization software, Tibco Spotfire, USA.

Structure (SMILES) | Myc Efficacy (−LogEC50)
CN1CCC[C@H](CN2CC[C@@H](CNC(=O)C3CCN(c4nc(-c5ccc(Cl)cc5)no4)CC3)C2)C1 (single isomer, unassigned) [Compound 470] | ++ (++ ≥5 and <6)
CN1CCC[C@H](CN2CC[C@H](CNC(=O)C3CCN(c4nc(-c5ccc(Cl)cc5)no4)CC3)C2)C1 (single isomer, unassigned) [Compound 471] | ++ (++ ≥5 and <6)
COc1ccc(-c2noc(N3CCC(C(=O)NCCCN4CCCCC4)CC3)n2)cc1 [Compound 101, 1-(3-(4-methoxyphenyl)-1,2,4-oxadiazol-5-yl)-N-(3-(piperidin-1-yl)propyl)piperidine-4-carboxamide] | + (+ >3 and <5)
CCCCN(CC)CCCNC(=O)C1CCN(c2nc(-c3ccc(OC)cc3)no2)CC1 [Compound 102, N-(3-(butyl(ethyl)amino)propyl)-1-(3-(4-methoxyphenyl)-1,2,4-oxadiazol-5-yl)piperidine-4-carboxamide] | + (+ >3 and <5)
CCc1ccc(CNC(=O)C2CCN(c3nc(-c4ccc(Cl)cc4)no3)CC2)cc1 [Compound 103, 1-(3-(4-chlorophenyl)-1,2,4-oxadiazol-5-yl)-N-(4-ethylbenzyl)piperidine-4-carboxamide] | + (+ >3 and <5)
CCCN1CCN(C(=O)C2CCN(c3nc(-c4ccc(OC)cc4)no3)CC2)CC1 [Compound 104, (1-(3-(4-methoxyphenyl)-1,2,4-oxadiazol-5-yl)piperidin-4-yl)(4-propylpiperazin-1-yl)methanone] | + (+ >3 and <5)
COc1ccc(-c2noc(N3CCC(C(=O)NCC4CCN(Cc5ccc(C)cc5)C4)CC3)n2)cc1 (stereo not drawn) [Compound 105, 1-(3-(4-methoxyphenyl)-1,2,4-oxadiazol-5-yl)-N-((1-(4-methylbenzyl)pyrrolidin-3-yl)methyl)piperidine-4-carboxamide] | ++ (++ ≥5 and <6)
COc1ccc(-c2noc(N3CCC(C(=O)NC[C@H]4CCN(Cc5ccc(C)cc5)C4)CC3)n2)cc1 [Compound 106, (R)-1-(3-(4-methoxyphenyl)-1,2,4-oxadiazol-5-yl)-N-((1-(4-methylbenzyl)pyrrolidin-3-yl)methyl)piperidine-4-carboxamide] | ++ (++ ≥5 and <6)
COc1ccc(-c2noc(N3CCC(C(=O)NC[C@@H]4CCN(Cc5ccc(C)cc5)C4)CC3)n2)cc1 [Compound 107, (S)-1-(3-(4-methoxyphenyl)-1,2,4-oxadiazol-5-yl)-N-((1-(4-methylbenzyl)pyrrolidin-3-yl)methyl)piperidine-4-carboxamide] | + (+ >3 and <5)
COc1ccc(-c2noc(N3CCC(C(=O)N4CCCC4)CC3)n2)cc1 [Compound 109, (1-(3-(4-methoxyphenyl)-1,2,4-oxadiazol-5-yl)piperidin-4-yl)(pyrrolidin-1-yl)methanone] | + (+ >3 and <5)
COc1ccc(-c2noc(N3CCC(C(=O)N4CCC(C)CC4)CC3)n2)cc1 [Compound 110, (1-(3-(4-methoxyphenyl)-1,2,4-oxadiazol-5-yl)piperidin-4-yl)(4-methylpiperidin-1-yl)methanone] | + (+ >3 and <5)
COc1ccc(-c2noc(N3CCC(C(=O)NCCN(C)C)CC3)n2)cc1 [Compound 111, N-(2-(dimethylamino)ethyl)-1-(3-(4-methoxyphenyl)-1,2,4-oxadiazol-5-yl)piperidine-4-carboxamide] | + (+ >3 and <5)
COCCCNC(=O)C1CCN(c2nc(-c3ccc(OC)cc3)no2)CC1 [Compound 112, 1-(3-(4-methoxyphenyl)-1,2,4-oxadiazol-5-yl)-N-(3-methoxypropyl)piperidine-4-carboxamide] | + (+ >3 and <5)
CCN(CC)CCCNC(=O)C1CCN(c2nc(-c3ccc(OC)cc3)no2)CC1 [Compound 113, N-(3-(diethylamino)propyl)-1-(3-(4-methoxyphenyl)-1,2,4-oxadiazol-5-yl)piperidine-4-carboxamide] | + (+ >3 and <5)
CCN(CC)CCNC(=O)C1CCN(c2nc(-c3ccc(OC)cc3)no2)CC1 [Compound 114, N-(2-(diethylamino)ethyl)-1-(3-(4-methoxyphenyl)-1,2,4-oxadiazol-5-yl)piperidine-4-carboxamide] | + (+ >3 and <5)
COc1ccc(-c2noc(N3CCC(C(=O)NCc4ccccn4)CC3)n2)cc1 [Compound 115, 1-(3-(4-methoxyphenyl)-1,2,4-oxadiazol-5-yl)-N-(pyridin-2-ylmethyl)piperidine-4-carboxamide] | − (− ≤3)
COc1ccc(-c2noc(N3CCC(C(=O)NCc4cccnc4)CC3)n2)cc1 [Compound 116, 1-(3-(4-methoxyphenyl)-1,2,4-oxadiazol-5-yl)-N-(pyridin-3-ylmethyl)piperidine-4-carboxamide] | + (+ >3 and <5)

Structure (SMILES) | Myc Efficacy (−LogEC50)
COc1ccc(-c2noc(N3CCC(C(=O)NCCCN4CCN(C)CC4)CC3)n2)cc1 [Compound 117, 1-(3-(4-methoxyphenyl)-1,2,4-oxadiazol-5-yl)-N-(3-(4-methylpiperazin-1-yl)propyl)piperidine-4-carboxamide] | + (+ >3 and <5)
CCCCN(CC)CCNC(=O)C1CCN(c2nc(-c3ccc(OC)cc3)no2)CC1 [Compound 119, N-(2-(butyl(ethyl)amino)ethyl)-1-(3-(4-methoxyphenyl)-1,2,4-oxadiazol-5-yl)piperidine-4-carboxamide] | + (+ >3 and <5)
COc1ccc(-c2noc(N3CCC(C(=O)NCc4cccs4)CC3)n2)cc1 [Compound 120, 1-(3-(4-methoxyphenyl)-1,2,4-oxadiazol-5-yl)-N-(thiophen-2-ylmethyl)piperidine-4-carboxamide] | + (+ >3 and <5)
COc1ccc(-c2noc(N3CCC(C(=O)NCc4cccc(OC)c4)CC3)n2)cc1 [Compound 121, N-(3-methoxybenzyl)-1-(3-(4-methoxyphenyl)-1,2,4-oxadiazol-5-yl)piperidine-4-carboxamide] | + (+ >3 and <5)
COc1ccc(-c2noc(N3CCC(C(=O)NCc4cccc(Cl)c4)CC3)n2)cc1 [Compound 122, N-(3-chlorobenzyl)-1-(3-(4-methoxyphenyl)-1,2,4-oxadiazol-5-yl)piperidine-4-carboxamide] | + (+ >3 and <5)
COc1ccc(-c2noc(N3CCC(C(=O)NCc4ccc(Cl)cc4)CC3)n2)cc1 [Compound 123, N-(4-chlorobenzyl)-1-(3-(4-methoxyphenyl)-1,2,4-oxadiazol-5-yl)piperidine-4-carboxamide] | + (+ >3 and <5)
COc1ccc(-c2noc(N3CCC(C(=O)NCCCN4CCCC(C)C4)CC3)n2)cc1 (stereo not drawn) [Compound 124, 1-(3-(4-methoxyphenyl)-1,2,4-oxadiazol-5-yl)-N-(3-(3-methylpiperidin-1-yl)propyl)piperidine-4-carboxamide] | + (+ >3 and <5)
COc1ccc(-c2noc(NCCCN3CCC(Cc4ccccc4)CC3)n2)cc1 [Compound 125, N-(3-(4-benzylpiperidin-1-yl)propyl)-3-(4-methoxyphenyl)-1,2,4-oxadiazol-5-amine] | + (+ >3 and <5)
CCc1ccc(CNC(=O)C2CCN(c3nc(-c4ccc(OC)cc4)no3)CC2)cc1 [Compound 126, N-(4-ethylbenzyl)-1-(3-(4-methoxyphenyl)-1,2,4-oxadiazol-5-yl)piperidine-4-carboxamide] | + (+ >3 and <5)
CCCNC(=O)C1CCN(c2nc(-c3ccc(OC)cc3)no2)CC1 [Compound 127, 1-(3-(4-methoxyphenyl)-1,2,4-oxadiazol-5-yl)-N-propylpiperidine-4-carboxamide] | + (+ >3 and <5)
COc1ccc(-c2noc(N3CCC(C(=O)NCCc4ccccc4)CC3)n2)cc1 [Compound 128, 1-(3-(4-methoxyphenyl)-1,2,4-oxadiazol-5-yl)-N-phenethylpiperidine-4-carboxamide] | + (+ >3 and <5)
COc1ccc(-c2noc(N3CCC(C(=O)NCCCc4ccccc4)CC3)n2)cc1 [Compound 129, 1-(3-(4-methoxyphenyl)-1,2,4-oxadiazol-5-yl)-N-(3-phenylpropyl)piperidine-4-carboxamide] | + (+ >3 and <5)
COc1ccc(-c2noc(N3CCC(C(=O)NCCCN(C)c4ccccc4)CC3)n2)cc1 [Compound 130, 1-(3-(4-methoxyphenyl)-1,2,4-oxadiazol-5-yl)-N-(3-(methyl(phenyl)amino)propyl)piperidine-4-carboxamide] | + (+ >3 and <5)
O=C(C1CCN(c2nc(-c3ccccc3)no2)CC1)N1CCN(Cc2ccccc2)CC1 [Compound 131, (4-benzylpiperazin-1-yl)(1-(3-phenyl-1,2,4-oxadiazol-5-yl)piperidin-4-yl)methanone] | + (+ >3 and <5)
CC1CCCN(CCCNC(=O)C2CCN(c3nc(-c4ccc(Cl)cc4)no3)CC2)C1 (stereo not drawn) [Compound 132, 1-(3-(4-chlorophenyl)-1,2,4-oxadiazol-5-yl)-N-(3-(3-methylpiperidin-1-yl)propyl)piperidine-4-carboxamide] | + (+ >3 and <5)
COc1ccc(CNC(=O)C2CCN(c3nc(-c4ccc(C(C)C)cc4)no3)CC2)cc1 [Compound 133, 1-(3-(4-isopropylphenyl)-1,2,4-oxadiazol-5-yl)-N-(4-methoxybenzyl)piperidine-4-carboxamide] | + (+ >3 and <5)
